Test results published in ChEMBL document CHEMBL3792365, “Dioxol and dihydrodioxin analogs of 2- and 3-phenylacetonitriles as potent anti-cancer agents with nanomolar activity against a variety of human cancer cells” (2016).

Columns and labels:
Assay type in all cases: functional
[1] = Growth inhibition of human SF268 cells at 10 uM after 48 hrs by sulforhodamine B assay; conditions: SF-268, 48 h, values are per cent of control
[2] = Growth inhibition of human SNB19 cells at 10 uM after 48 hrs by sulforhodamine B assay; conditions: SNB-19, 48 h, values are per cent of control
[3] = Growth inhibition of human SF539 cells at 10 uM after 48 hrs by sulforhodamine B assay; conditions: SF-539, 48 h, values are per cent of control
[4] = Growth inhibition of human DU145 cells at 10 uM after 48 hrs by sulforhodamine B assay; conditions: DU-145, 48 h, values are per cent of control
[5] = Growth inhibition of human HCT116 cells at 10 uM after 48 hrs by sulforhodamine B assay; conditions: HCT-116, 48 h, values are per cent of control
[6] = Growth inhibition of human NCI-ADR-RES cells at 10 uM after 48 hrs by sulforhodamine B assay; conditions: values are per cent of control
[7] = Growth inhibition of human OVCAR8 cells at 10 uM after 48 hrs by sulforhodamine B assay; conditions: OVCAR-8, 48 h, values are per cent of control
[8] = Growth inhibition of human HCT15 cells at 10 uM after 48 hrs by sulforhodamine B assay; conditions: HCT-15, 48 h, values are per cent of control
T47D = experiment: Growth inhibition of human T47D cells at 10 uM after 48 hrs by sulforhodamine B assay; conditions: values are per cent of control
[9] = Growth inhibition of human UO31 cells at 10 uM after 48 hrs by sulforhodamine B assay; conditions: UO-31, 48 h, values are per cent of control
SN12C = experiment: Growth inhibition of human SN12C cells at 10 uM after 48 hrs by sulforhodamine B assay; conditions: values are per cent of control
[10] = Growth inhibition of human HCC2998 cells at 10 uM after 48 hrs by sulforhodamine B assay; conditions: HCC 2998, 48 h, values are per cent of control
[11] = Growth inhibition of human Hs 578T cells at 10 uM after 48 hrs by sulforhodamine B assay; conditions: values are per cent of control
SK-MEL-5 = experiment: Growth inhibition of human SK-MEL-5 cells at 10 uM after 48 hrs by sulforhodamine B assay; conditions: SK-MEL-5, 48 h, values are per cent of control
KM12 = experiment: Growth inhibition of human KM12 cells at 10 uM after 48 hrs by sulforhodamine B assay; conditions: KM12, 48 h, values are per cent of control
[12] = Growth inhibition of human LOXIMVI cells at 10 uM after 48 hrs by sulforhodamine B assay; conditions: LOX IMVI, values are per cent of control
A549 = experiment: Growth inhibition of human A549/ATCC cells at 10 uM after 48 hrs by sulforhodamine B assay; conditions: A549, 48 h, values are per cent of control
[13] = Growth inhibition of human COLO205 cells at 10 uM after 48 hrs by sulforhodamine B assay; conditions: COLO 205, 48 h, values are per cent of control
[14] = Growth inhibition of human HOP62 cells at 10 uM after 48 hrs by sulforhodamine B assay; conditions: HOP-62, 48 h, values are per cent of control
ACHN = experiment: Growth inhibition of human ACHN cells at 10 uM after 48 hrs by sulforhodamine B assay; conditions: values are per cent of control
NCI-H522 = experiment: Growth inhibition of human NCI-H522 cells at 10 uM after 48 hrs by sulforhodamine B assay; conditions: NCI-H522, 48 h, values are per cent of control
NCI-H460 = experiment: Growth inhibition of human NCI-H460 cells at 10 uM after 48 hrs by sulforhodamine B assay; conditions: NCI-H460, 48 h, values are per cent of control
[15] = Growth inhibition of human Caki1 cells at 10 uM after 48 hrs by sulforhodamine B assay; conditions: CAKI-1, 48 h, values are per cent of control
MDA-MB-435 = experiment: Growth inhibition of human MDA-MB-435 cells at 10 uM after 48 hrs by sulforhodamine B assay; conditions: MDA-MB-435, 48 h, values are per cent of control
[16] = Growth inhibition of human OVCAR4 cells at 10 uM after 48 hrs by sulforhodamine B assay; conditions: OVCAR-4, 48 h, values are per cent of control
MDA-MB-231 = experiment: Growth inhibition of human MDA-MB-231 cells at 10 uM after 48 hrs by sulforhodamine B assay; conditions: MDA-MB-231, 48 h, values are per cent of control
SK-MEL-28 = experiment: Growth inhibition of human SK-MEL-28 cells at 10 uM after 48 hrs by sulforhodamine B assay; conditions: SK-MEL-28, 48 h, values are per cent of control
[17] = Growth inhibition of human RXF393 cells at 10 uM after 48 hrs by sulforhodamine B assay; conditions: RXF 393, 48 h, values are per cent of control
[18] = Growth inhibition of human IGROV1 cells at 10 uM after 48 hrs by sulforhodamine B assay; conditions: IGROV-1, 48 h, values are per cent of control
[19] = Growth inhibition of human SW620 cells at 10 uM after 48 hrs by sulforhodamine B assay; conditions: SW-620, 48 h, values are per cent of control
A498 = experiment: Growth inhibition of human A498 cells at 10 uM after 48 hrs by sulforhodamine B assay; conditions: A498, 48 h, values are per cent of control
[20] = Growth inhibition of human OVCAR5 cells at 10 uM after 48 hrs by sulforhodamine B assay; conditions: OVCAR-5, 48 h, values are per cent of control
MDA-MB-468 = experiment: Growth inhibition of human MDA-MB-468 cells at 10 uM after 48 hrs by sulforhodamine B assay; conditions: MDA-MB-468, 48 h, values are per cent of control
[21] = Growth inhibition of human UACC62 cells at 10 uM after 48 hrs by sulforhodamine B assay; conditions: UACC-62, 48 h, values are per cent of control
K562 = experiment: Growth inhibition of human K562 cells at 10 uM after 48 hrs by sulforhodamine B assay; conditions: K562, 48 h, values are per cent of control
U-251 = experiment: Growth inhibition of human U251 cells at 10 uM after 48 hrs by sulforhodamine B assay; conditions: U-251, 48 h, values are per cent of control
NCI-H322M = experiment: Growth inhibition of human NCI-H322M cells at 10 uM after 48 hrs by sulforhodamine B assay; conditions: values are per cent of control
[22] = Growth inhibition of human BT549 cells at 10 uM after 48 hrs by sulforhodamine B assay; conditions: BT-549, 48 h, values are per cent of control
M14 = experiment: Growth inhibition of human M14 cells at 10 uM after 48 hrs by sulforhodamine B assay; conditions: M14, 48 h, values are per cent of control
[23] = Growth inhibition of human SNB75 cells at 10 uM after 48 hrs by sulforhodamine B assay; conditions: SNB-75, 48 h, values are per cent of control

SMILES	growth, % of control at 10 µM [1]	growth, % of control at 10 µM [2]	growth, % of control at 10 µM [3]	growth, % of control at 10 µM [4]	growth, % of control at 10 µM [5]	growth, % of control at 10 µM [6]	growth, % of control at 10 µM [7]	growth, % of control at 10 µM [8]	growth, % of control at 10 µM (T47D)	growth, % of control at 10 µM [9]	growth, % of control at 10 µM (SN12C)	growth, % of control at 10 µM [10]	growth, % of control at 10 µM [11]	growth, % of control at 10 µM (SK-MEL-5)	growth, % of control at 10 µM (KM12)	growth, % of control at 10 µM [12]	growth, % of control at 10 µM (A549)	growth, % of control at 10 µM [13]	growth, % of control at 10 µM [14]	growth, % of control at 10 µM (ACHN)	other results
COc1cc(/C=C(\C#N)c2ccc3c(c2)OCO3)cc(OC)c1OC	94.4%	93.8%	92.4%	107%	99.4%	93.9%	96.3%	85.7%	70.7%	67.1%	95.4%	91.3%	100%	92.2%	93.8%	109%	93.6%	104%	92.2%	96%	growth, % of control at 10 µM (NCI-H522): 85.8%; growth, % of control at 10 µM (NCI-H460): 107%; growth, % of control at 10 µM [15]: 86.6%; growth, % of control at 10 µM (MDA-MB-435): 74.7%; growth, % of control at 10 µM [16]: 89.2%; growth, % of control at 10 µM (MDA-MB-231): 88.2%; growth, % of control at 10 µM (SK-MEL-28): 97.6%; growth, % of control at 10 µM [17]: 100%; growth, % of control at 10 µM [18]: 95.3%; growth, % of control at 10 µM [19]: 98.9%; growth, % of control at 10 µM (A498): 81.8%; growth, % of control at 10 µM [20]: 99.7%; growth, % of control at 10 µM (MDA-MB-468): 99.6%; growth, % of control at 10 µM [21]: 87.6%; growth, % of control at 10 µM (K562): 80.4%; growth, % of control at 10 µM (U-251): 96.6%; growth, % of control at 10 µM (NCI-H322M): 104%; growth, % of control at 10 µM [22]: 82.1%; growth, % of control at 10 µM (M14): 95%; growth, % of control at 10 µM [23]: 114%
COc1ccc(/C(C#N)=C/c2ccc3c(c2)OCO3)cc1	92%	49.4%	83.7%	95%	64.9%	75.3%	94.7%	59%	70%	72.8%	84.3%	80%	92.4%	91.4%	63.6%	102%	71.2%	76.2%	86.6%	95.3%	growth, % of control at 10 µM (NCI-H522): 90.5%; growth, % of control at 10 µM (NCI-H460): 64.3%; growth, % of control at 10 µM [15]: 78.2%; growth, % of control at 10 µM (MDA-MB-435): 77.9%; growth, % of control at 10 µM [16]: 76.4%; growth, % of control at 10 µM (MDA-MB-231): 68.7%; growth, % of control at 10 µM (SK-MEL-28): 81.4%; growth, % of control at 10 µM [17]: 91.4%; growth, % of control at 10 µM [18]: 84.6%; growth, % of control at 10 µM [19]: 84.9%; growth, % of control at 10 µM (A498): 63.3%; growth, % of control at 10 µM [20]: 93.9%; growth, % of control at 10 µM (MDA-MB-468): 48.6%; growth, % of control at 10 µM [21]: 69.2%; growth, % of control at 10 µM (K562): 37.9%; growth, % of control at 10 µM (U-251): 80.9%; growth, % of control at 10 µM (NCI-H322M): 94.7%; growth, % of control at 10 µM [22]: 74.7%; growth, % of control at 10 µM (M14): 10.4%; growth, % of control at 10 µM [23]: 80.8%
COc1ccc(/C=C(\C#N)c2ccc3c(c2)OCO3)c(OC)c1	53.1%	55.6%	19%	63.9%	19.3%	20.3%	63.1%	24.4%	43.5%	46.7%	53.3%	60.5%	43.8%	31.7%	28.1%	41%	36.4%	25.4%	54%	59.1%	growth, % of control at 10 µM (NCI-H522): 43.3%; growth, % of control at 10 µM (NCI-H460): 36%; growth, % of control at 10 µM [15]: 40%; growth, % of control at 10 µM (MDA-MB-435): -28.6%; growth, % of control at 10 µM [16]: 73.7%; growth, % of control at 10 µM (MDA-MB-231): 48.9%; growth, % of control at 10 µM (SK-MEL-28): 50.2%; growth, % of control at 10 µM [17]: 40.3%; growth, % of control at 10 µM [18]: 45.1%; growth, % of control at 10 µM [19]: 31.9%; growth, % of control at 10 µM (A498): 26.5%; growth, % of control at 10 µM [20]: 81.6%; growth, % of control at 10 µM (MDA-MB-468): 8.3%; growth, % of control at 10 µM [21]: 39.7%; growth, % of control at 10 µM (K562): 15.9%; growth, % of control at 10 µM (U-251): 29.2%; growth, % of control at 10 µM (NCI-H322M): 67.6%; growth, % of control at 10 µM [22]: 35.3%; growth, % of control at 10 µM (M14): 16.4%; growth, % of control at 10 µM [23]: 12.8%
